One block for each molecule: values may come before it.
Assays:
physchem = settings: octanol/water
Canis familiaris = assay: Clearance in Beagle dog assessed as liver blood flow at 2 umol/kg, iv and 5 umol/kg, po; format: ADME, organism-based, Canis lupus familiaris; settings: in vivo
[1] = Volume of distribution at steady state in Beagle dog at 2 umol/kg, iv and 5 umol/kg, po; format: ADME, organism-based, Canis lupus familiaris; settings: in vivo, read-out: Vdss
[2] = Oral bioavailability in Beagle dog at 5 umol/kg, po; format: ADME, organism-based, Canis lupus familiaris; settings: in vivo
[3] = Oral bioavailability in Han Wistar rat at 5 or 10 µmol/kg, po; settings: in vivo
Rattus norvegicus = assay: Clearance in Han Wistar rat assessed as liver blood flow at 1 or 2.5 µmol/kg, iv and 5 or 10 µmol/kg, po; settings: in vivo
[4] = Volume of distribution at steady state in Han Wistar rat at 1 or 2.5 µmol/kg, iv and 5 or 10 µmol/kg, po; settings: in vivo, read-out: Vdss
[5] = AUC in nude mouse at 100 umol/kg, po; format: ADME, organism-based; settings: plasma
[6] = Cmax in nude mouse at 100 umol/kg, po; format: ADME, organism-based; set-up: dose 100 umol/kg, route oral; settings: in vivo
[7] = AUC in nude mouse at 200 umol/kg, po; format: ADME, organism-based; settings: plasma
[8] = Cmax in nude mouse at 200 umol/kg, po; format: ADME, organism-based; set-up: dose 200 umol/kg, route oral; settings: in vivo
[9] = AUC in nude mouse at 10 umol/kg, po; format: ADME, organism-based; settings: plasma
[10] = Cmax in nude mouse at 10 umol/kg, po; format: ADME, organism-based; set-up: dose 10 umol/kg, route oral; settings: in vivo

- logD (physchem): 3.3
Structure (SMILES): Cc1ccc(CO)cc1N(C)c1ccnc(Nc2cc(N3CCCOCC3)cc(N3CCOCC3)c2)n1

- LBF (Canis familiaris): 57%
- Vd [1]: 1.6 L/kg
- bioavailability [2]: 22%
- logD (physchem): 3.4
- bioavailability [3]: 64%
- LBF (Rattus norvegicus): 9%
- Vd [4]: 0.7 L/kg
Structure (SMILES): Cc1ccc(CO)cc1N(C)c1ccnc(Nc2cc(N3CCOCC3)nc(N3CCOCC3)c2)n1

- logD (physchem): 2.8
Structure (SMILES): Cc1ccc(CO)cc1N(C)c1ccnc(Nc2cc(N3CCOCC3)cc(N3CCN(O)CC3)c2)n1

- AUC [5]: 63 µM·h
- Cmax [6]: 15 µM
- AUC [7]: 155 µM·h
- Cmax [8]: 17 µM
- LBF (Canis familiaris): 51%
- Vd [1]: 2.1 L/kg
- bioavailability [2]: 58%
- AUC [9]: 1.6 µM·h
- Cmax [10]: 1.9 µM
- logD (physchem): 3.1
- bioavailability [3]: 78%
- LBF (Rattus norvegicus): 11%
- Vd [4]: 0.5 L/kg
Structure (SMILES): Cc1ccc(CO)cc1N(C)c1ccnc(Nc2cc(N3CCOCC3)cc(N3CCOCC3)c2)n1

- logD (physchem): 3.7
Structure (SMILES): Cc1ccc(CO)cc1N(C)c1ccnc(Nc2cc(OC3CCOCC3)cc(N3CCOCC3)c2)n1

- logD (physchem): 3.8
Structure (SMILES): CCN(c1ccnc(Nc2cc(N3CCOCC3)cc(N3CCOCC3)c2)n1)c1cc(CO)ccc1C

- logD (physchem): 3.4
Structure (SMILES): Cc1ccc(CO)cc1N(c1ccnc(Nc2cc(N3CCOCC3)cc(S(C)(=O)=O)c2)n1)C(C)C

- logD (physchem): 3
Structure (SMILES): Cc1ccc(CO)cc1N(C)c1ccnc(Nc2cc(CN3CCOCC3)cc(N3CCOCC3)c2)n1

- logD (physchem): 3.8
Structure (SMILES): Cc1ccc(CO)cc1N(C)c1ccnc(Nc2cc(N3CCCC3)cc(N3CCOCC3)c2)n1

- logD (physchem): 3.9
Structure (SMILES): COc1cc(Nc2nccc(N(C)c3cc(CO)ccc3C)n2)cc(N2CCOCC2)c1

- logD (physchem): 2.2
Structure (SMILES): Cc1ccc(CO)cc1N(C)c1ccnc(Nc2cc(C(=O)N3CCOCC3)cc(N3CCOCC3)c2)n1

- logD (physchem): 3.9
Structure (SMILES): Cc1ccc(CO)cc1N(C)c1ccnc(Nc2cc(N3CCOCC3)nc(N3CCOCC3)n2)n1

- logD (physchem): 4.2
Structure (SMILES): Cc1ccc(CO)cc1N(C)c1ccnc(Nc2cc(N3CCCCC3)cc(N3CCOCC3)c2)n1

- logD (physchem): 3.3
Structure (SMILES): COCCOc1cc(Nc2nccc(N(C)c3cc(CO)ccc3C)n2)cc(N2CCOCC2)c1

- bioavailability [3]: 17%
- LBF (Rattus norvegicus): 16%
- Vd [4]: 0.4 L/kg
Structure (SMILES): Cc1ccc(CO)cc1N(C)c1ccnc(Nc2cc(N3CCOCC3)cc(S(C)(=O)=O)c2)n1

- logD (physchem): 2.8
Structure (SMILES): COCCN(c1ccnc(Nc2cc(N3CCOCC3)cc(N3CCOCC3)c2)n1)c1cc(CO)ccc1C

Reference: ChEMBL document CHEMBL1759854, “Inhibitors of the tyrosine kinase EphB4. Part 4: Discovery and optimization of a benzylic alcohol series” (Bioorg Med Chem Lett, 2011)
